Measurements reported in ChEMBL document CHEMBL1275505, “Smqnr, a new chromosome-carried quinolone resistance gene in Stenotrophomonas maltophilia” (2008).
Values after ≈ are worked out from the molar mass of the structure shown.

What was measured:
Type in all cases: functional
Escherichia coli [1] = assay: Antimicrobial activity against Escherichia coli TOP10 by Etest
Escherichia coli [2] = assay: Antimicrobial activity against Escherichia coli TOP10 harboring pSmQnr4 carrying Smqnr gene by Etest
Escherichia coli [3] = assay: Antimicrobial activity against Escherichia coli TOP10 harboring pSmQnr1 carrying Smqnr gene by Etest
Escherichia coli [4] = assay: Antimicrobial activity against Escherichia coli TOP10 harboring pSmQnr7 carrying Smqnr gene by Etest
Escherichia coli [5] = assay: Antimicrobial activity against Escherichia coli TOP10 harboring pSmQnr10 carrying Smqnr gene by Etest
Escherichia coli [6] = assay: Antimicrobial activity against Escherichia coli TOP10 harboring pSmQnr9 carrying Smqnr gene by Etest
Escherichia coli [7] = assay: Antimicrobial activity against Escherichia coli TOP10 harboring pSmQnr6 carrying Smqnr gene by Etest
Escherichia coli [8] = assay: Antimicrobial activity against Escherichia coli TOP10 harboring pSmQnr3 carrying Smqnr gene by Etest
Escherichia coli [9] = assay: Antimicrobial activity against Escherichia coli TOP10 harboring pSmQnr11 carrying Smqnr gene by Etest
Escherichia coli [10] = assay: Antimicrobial activity against Escherichia coli TOP10 harboring pSmQnr8 carrying Smqnr gene by Etest
Escherichia coli [11] = assay: Antimicrobial activity against Escherichia coli TOP10 harboring pSmQnr5 carrying Smqnr gene by Etest
Escherichia coli [12] = assay: Antimicrobial activity against Escherichia coli TOP10 harboring pSmQnr2 carrying Smqnr gene by Etest

| Structure (SMILES) | MIC (Escherichia coli [1]) | MIC (Escherichia coli [2]) | MIC (Escherichia coli [3]) | MIC (Escherichia coli [4]) | MIC (Escherichia coli [5]) | MIC (Escherichia coli [6]) | MIC (Escherichia coli [7]) | MIC (Escherichia coli [8]) | MIC (Escherichia coli [9]) | MIC (Escherichia coli [10]) | MIC (Escherichia coli [11]) | MIC (Escherichia coli [12]) |
| --- | --- | --- | --- | --- | --- | --- | --- | --- | --- | --- | --- | --- |
| COc1c(N2CCNC(C)C2)c(F)cc2c(=O)c(C(=O)O)cn(C3CC3)c12 (stereo unspecified) [GATIFLOXACIN] | < 0.002 µg/mL | 0.002 µg/mL (≈ 0.00533 µM) | 0.008 µg/mL (≈ 0.0213 µM) | 0.023 µg/mL (≈ 0.0613 µM) | 0.003 µg/mL (≈ 0.00799 µM) | 0.002 µg/mL (≈ 0.00533 µM) | 0.064 µg/mL (≈ 0.17 µM) | 0.003 µg/mL (≈ 0.00799 µM) | 0.003 µg/mL (≈ 0.00799 µM) | 0.002 µg/mL (≈ 0.00533 µM) | – | – |
| C[C@H]1COc2c(N3CCN(C)CC3)c(F)cc3c(=O)c(C(=O)O)cn1c23.C[C@H]1COc2c(N3CCN(C)CC3)c(F)cc3c(=O)c(C(=O)O)cn1c23.O [LEVOFLOXACIN] | 0.004 µg/mL | 0.006 µg/mL | 0.023 µg/mL | 0.023 µg/mL | 0.023 µg/mL | – | 0.023 µg/mL | 0.006 µg/mL | – | – | – | – |
| COc1c(N2C[C@@H]3CCCN[C@@H]3C2)c(F)cc2c(=O)c(C(=O)O)cn(C3CC3)c12 [MOXIFLOXACIN] | < 0.002 µg/mL | 0.002 µg/mL (≈ 0.00498 µM) | 0.012 µg/mL (≈ 0.0299 µM) | 0.008 µg/mL (≈ 0.0199 µM) | 0.004 µg/mL (≈ 0.00996 µM) | – | 0.047 µg/mL (≈ 0.117 µM) | 0.002 µg/mL (≈ 0.00498 µM) | 0.002 µg/mL (≈ 0.00498 µM) | 0.002 µg/mL (≈ 0.00498 µM) | 0.003 µg/mL (≈ 0.00747 µM) | – |
| CCn1cc(C(=O)O)c(=O)c2ccc(C)nc21 [NALIDIXIC ACID] | 1.5 µg/mL (≈ 6.46 µM) | 1.5 µg/mL (≈ 6.46 µM) | 3 µg/mL (≈ 12.9 µM) | 2 µg/mL (≈ 8.61 µM) | 2 µg/mL (≈ 8.61 µM) | 1.5 µg/mL (≈ 6.46 µM) | 2 µg/mL (≈ 8.61 µM) | 1.5 µg/mL (≈ 6.46 µM) | 2 µg/mL (≈ 8.61 µM) | 2 µg/mL (≈ 8.61 µM) | 2 µg/mL (≈ 8.61 µM) | 2 µg/mL (≈ 8.61 µM) |
| CCn1cc(C(=O)O)c(=O)c2cc(F)c(N3CCNCC3)cc21 [NORFLOXACIN] | 0.032 µg/mL (≈ 0.1 µM) | 0.032 µg/mL (≈ 0.1 µM) | 0.064 µg/mL (≈ 0.2 µM) | 0.047 µg/mL (≈ 0.147 µM) | 0.032 µg/mL (≈ 0.1 µM) | 0.032 µg/mL (≈ 0.1 µM) | 0.064 µg/mL (≈ 0.2 µM) | 0.032 µg/mL (≈ 0.1 µM) | 0.032 µg/mL (≈ 0.1 µM) | 0.047 µg/mL (≈ 0.147 µM) | 0.032 µg/mL (≈ 0.1 µM) | 0.047 µg/mL (≈ 0.147 µM) |
| C[C@@H]1CN(c2c(F)c(N)c3c(=O)c(C(=O)O)cn(C4CC4)c3c2F)C[C@H](C)N1 [SPARFLOXACIN] | < 0.002 µg/mL | – | 0.004 µg/mL (≈ 0.0102 µM) | 0.008 µg/mL (≈ 0.0204 µM) | 0.002 µg/mL (≈ 0.0051 µM) | – | 0.125 µg/mL (≈ 0.319 µM) | – | – | – | – | – |
